Experimental data taken from the Kinase Knowledgebase extract (Sharma et al. 2016).
pKi: −log10 of the molar value.

biological target: CDK2 (human) (UniProt P24941); experiment: Enzyme Assay; details: not given

Row | SMILES | pKi
1 | CN(CCN)c1ccc(S(=O)(=O)N2CCC(Nc3nc(N)c(C(=O)c4c(F)cccc4F)s3)CC2)cn1 | 8.31
2 | CC(=O)/C=C/C(=O)N1CCC(Nc2nc(N)c(C(=O)c3c(F)cccc3F)s2)CC1 | 6.30
3 | CN(C)CCNc1ccc(S(=O)(=O)N2CCC(Nc3nc(N)c(C(=O)c4c(F)cccc4F)s3)CC2)cn1 | 8.92

same assay, conditions: concentration not given here

Row | SMILES | inhibition
4 | CN(C(=O)N1CCC(Nc2nc(N)c(C(=O)c3c(F)cccc3F)s2)CC1)c1ccccc1 | -7%
5 | Cc1ccccc1CC(=O)N1CCC(Nc2nc(N)c(C(=O)c3c(F)cccc3F)s2)CC1 | 56%
6 | Nc1nc(NC2CCN(C(=O)c3cccc(F)c3F)CC2)sc1C(=O)c1c(F)cccc1F | 11%
7 | Nc1nc(NC2CCN(C(=O)c3ccsc3)CC2)sc1C(=O)c1c(F)cccc1F | 52%
8 | Nc1nc(NC2CCN(C(=O)c3ccc(C(F)(F)F)cc3C(F)(F)F)CC2)sc1C(=O)c1c(F)cccc1F | 0%
9 | Nc1nc(NC2CCN(C(=O)CCC3CCCCC3=O)CC2)sc1C(=O)c1c(F)cccc1F (stereo unspecified) | 50%
10 | Nc1nc(NC2CCN(C(=O)c3csnn3)CC2)sc1C(=O)c1c(F)cccc1F | 68%
11 | Nc1nc(NC2CCN(C(=O)C3CC(=O)c4ccccc43)CC2)sc1C(=O)c1c(F)cccc1F (stereo unspecified) | 79%
12 | COc1ncccc1C(=O)N1CCC(Nc2nc(N)c(C(=O)c3c(F)cccc3F)s2)CC1 | 40%
13 | CC(=O)CCC(=O)N1CCC(Nc2nc(N)c(C(=O)c3c(F)cccc3F)s2)CC1 | 15%
14 | CC(=O)SC[C@@H](C)C(=O)N1CCC(Nc2nc(N)c(C(=O)c3c(F)cccc3F)s2)CC1 | 46%
15 | C=CCCCCC(=O)N1CCC(Nc2nc(N)c(C(=O)c3c(F)cccc3F)s2)CC1 | 16%
16 | COC(=O)CC(=O)N1CCC(Nc2nc(N)c(C(=O)c3c(F)cccc3F)s2)CC1 | -24%
17 | CSCC(=O)N1CCC(Nc2nc(N)c(C(=O)c3c(F)cccc3F)s2)CC1 | 84%
18 | Nc1nc(NC2CCN(C(=O)C3(O)CC3)CC2)sc1C(=O)c1c(F)cccc1F | 46%
19 | CCCOc1ccc(C(=O)N2CCC(Nc3nc(N)c(C(=O)c4c(F)cccc4F)s3)CC2)cc1 | 77%
20 | COc1cccc(OCC(=O)N2CCC(Nc3nc(N)c(C(=O)c4c(F)cccc4F)s3)CC2)c1 | 61%
21 | CC(O)CC(=O)N1CCC(Nc2nc(N)c(C(=O)c3c(F)cccc3F)s2)CC1 (stereo unspecified) | 38%
22 | CCN(CC)CCC(=O)N1CCC(Nc2nc(N)c(C(=O)c3c(F)cccc3F)s2)CC1 | 57%
23 | Nc1nc(NC2CCN(C(=O)/C=C/c3cccs3)CC2)sc1C(=O)c1c(F)cccc1F | 43%
24 | CCOC(=O)CC(=O)N1CCC(Nc2nc(N)c(C(=O)c3c(F)cccc3F)s2)CC1 | -13%

Row | SMILES | inhibition
25 | Nc1nc(NC2CCN(C(=O)Cc3cccs3)CC2)sc1C(=O)c1c(F)cccc1F | 73%
26 | Nc1nc(NC2CCN(C(=O)CCC(=O)c3cccs3)CC2)sc1C(=O)c1c(F)cccc1F | 63%
27 | C/C=C/CC(=O)N1CCC(Nc2nc(N)c(C(=O)c3c(F)cccc3F)s2)CC1 | 62%
28 | Nc1nc(NC2CCN(C(=O)COc3cc(Cl)c(Cl)cc3Cl)CC2)sc1C(=O)c1c(F)cccc1F | -10%
29 | CCCN(CCC)[C@@H](C)C(=O)N1CCC(Nc2nc(N)c(C(=O)c3c(F)cccc3F)s2)CC1 | 6%
30 | Cn1cccc1C(=O)N1CCC(Nc2nc(N)c(C(=O)c3c(F)cccc3F)s2)CC1 | 38%
31 | CCC(C)(O)CC(=O)N1CCC(Nc2nc(N)c(C(=O)c3c(F)cccc3F)s2)CC1 (stereo unspecified) | 47%
32 | CCOc1ccccc1/C=C/C(=O)N1CCC(Nc2nc(N)c(C(=O)c3c(F)cccc3F)s2)CC1 | 80%
33 | CC(C)=CC(=O)N1CCC(Nc2nc(N)c(C(=O)c3c(F)cccc3F)s2)CC1 | -19%
34 | CC(=O)Oc1c(C)cccc1C(=O)N1CCC(Nc2nc(N)c(C(=O)c3c(F)cccc3F)s2)CC1 | 50%
35 | Nc1nc(NC2CCN(C(=O)c3cnc4ccccc4c3)CC2)sc1C(=O)c1c(F)cccc1F | 27%
36 | Nc1nc(NC2CCN(C(=O)CSc3ccccc3F)CC2)sc1C(=O)c1c(F)cccc1F | 75%
37 | Nc1nc(NC2CCN(C(=O)C/C=C/c3ccccc3)CC2)sc1C(=O)c1c(F)cccc1F | 29%
38 | N#C/C(=C\c1ccccc1)C(=O)N1CCC(Nc2nc(N)c(C(=O)c3c(F)cccc3F)s2)CC1 | 67%
39 | Nc1nc(NC2CCN(C(=O)/C=C/c3cccc(Cl)c3)CC2)sc1C(=O)c1c(F)cccc1F | 24%
40 | COc1c(C)cccc1C(=O)N1CCC(Nc2nc(N)c(C(=O)c3c(F)cccc3F)s2)CC1 | 10%
41 | Nc1nc(NC2CCN(C(=O)C3CCc4ccccc4O3)CC2)sc1C(=O)c1c(F)cccc1F (stereo unspecified) | 6%
42 | C[C@H](CC(=O)N1CCC(Nc2nc(N)c(C(=O)c3c(F)cccc3F)s2)CC1)c1ccccc1 | 49%
43 | Nc1nc(NC2CCN(C(=O)CCCN3C(=O)C=CC3=O)CC2)sc1C(=O)c1c(F)cccc1F | 43%
44 | Nc1nc(NC2CCN(C(=O)/C=C/c3cc(F)ccc3F)CC2)sc1C(=O)c1c(F)cccc1F | 81%
45 | CC(=O)Nc1cccc(C(=O)N2CCC(Nc3nc(N)c(C(=O)c4c(F)cccc4F)s3)CC2)c1 | 69%

Row | SMILES | inhibition
46 | CSc1ncccc1C(=O)N1CCC(Nc2nc(N)c(C(=O)c3c(F)cccc3F)s2)CC1 | 33%
47 | Nc1nc(NC2CCN(C(=O)CCCc3ccccc3)CC2)sc1C(=O)c1c(F)cccc1F | 38%
48 | Nc1nc(NC2CCN(C(=O)/C=C/C=C/c3ccccc3)CC2)sc1C(=O)c1c(F)cccc1F | 58%
49 | C=CCC(C)(C)C(=O)N1CCC(Nc2nc(N)c(C(=O)c3c(F)cccc3F)s2)CC1 | 14%
50 | Nc1nc(NC2CCN(C(=O)[C@H](O)C3CCCCC3)CC2)sc1C(=O)c1c(F)cccc1F | 25%
51 | COc1ccc(C2(C(=O)N3CCC(Nc4nc(N)c(C(=O)c5c(F)cccc5F)s4)CC3)CC2)cc1 | 37%
52 | C=CCCCC(=O)N1CCC(Nc2nc(N)c(C(=O)c3c(F)cccc3F)s2)CC1 | 39%
53 | Nc1nc(NC2CCN(S(=O)(=O)c3c(F)cccc3F)CC2)sc1C(=O)c1c(F)cccc1F | -8%
54 | COc1ccc2[nH]c(C(=O)N3CCC(Nc4nc(N)c(C(=O)c5c(F)cccc5F)s4)CC3)cc2c1 | 35%
55 | CC(=O)/C=C/C(=O)N1CCC(Nc2nc(N)c(C(=O)c3c(F)cccc3F)s2)CC1 | 5%
56 | Nc1nc(NC2CCN(C(=O)/C=C/c3cccc(F)c3F)CC2)sc1C(=O)c1c(F)cccc1F | 51%
57 | C=CCC(C)C(=O)N1CCC(Nc2nc(N)c(C(=O)c3c(F)cccc3F)s2)CC1 (stereo unspecified) | 21%
58 | CCOc1ccccc1CC(=O)N1CCC(Nc2nc(N)c(C(=O)c3c(F)cccc3F)s2)CC1 | 71%
59 | Cc1ccc(C(=O)N2CCC(Nc3nc(N)c(C(=O)c4c(F)cccc4F)s3)CC2)cn1 | 20%
60 | Nc1nc(NC2CCN(C(=O)Cc3cccc(O)c3)CC2)sc1C(=O)c1c(F)cccc1F | 44%
61 | Nc1nc(NC2CCN(C(=O)Cc3sc(O)nc3O)CC2)sc1C(=O)c1c(F)cccc1F | 58%
62 | CCCC(CC)CC(=O)N1CCC(Nc2nc(N)c(C(=O)c3c(F)cccc3F)s2)CC1 (stereo unspecified) | 31%
63 | Nc1nc(NC2CCN(C(=O)/C=C/c3cc(O)ccc3O)CC2)sc1C(=O)c1c(F)cccc1F | 80%
64 | CC1CCC(C(=O)N2CCC(Nc3nc(N)c(C(=O)c4c(F)cccc4F)s3)CC2)CC1 (stereo unspecified) | 59%
65 | Nc1nc(NC2CCN(C(=O)C3CCC(=O)CC3)CC2)sc1C(=O)c1c(F)cccc1F | 48%
66 | Nc1nc(NC2CCN(C(=O)[C@H](O)Cc3ccccc3)CC2)sc1C(=O)c1c(F)cccc1F | 42%
